# Source: US20230183323A1 (BROWN UNIVERSITY, priority 2020, published 2023)
# System: pseudovirus containing S protein mutations D614G, E484K, United Kingdom, South African, Brazilian
# Assay type: cell-based, SARS-CoV-2
substance,measurement,value
rhCHI3L1: recombinant human CHI3L1 from a commercial source (R&D Inc.) or generated at Brown University,"cellular integration of Spike proteins of SARS-Cov2 (% of GFP positive cells, FACS)",stimulated
